Laboratory results as given in patent US11173151B2, “Substituted triazole derivatives and uses thereof” (BAYER AKTIENGESELLSCHAFT, priority 2017, dated 2021).

Assays:
human V1a receptor = biological target: T1, human V1a receptor (Homo sapiens, UniProt P37288); assay: Cellular in vitro assay for determining vasopressin receptor activity, V1a receptor cell line (CHO, aequorin luminescence); format: cell-based; conditions: for IC50: CHO cell line transfected with human V1a receptor, [Arg]-vasopressin at EC50 concentration, read-out: IC50 hV1a; for ratio IC50 hV2/hV1a: selectivity ratio IC50 hV2 / IC50 hV1a
T1 construct: expressed in transfected cells; host or cells: CHO K1 (ATCC), also stably transfected with a modified aequorin
In short: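 Antagonism is measured in stable CHO K1 transfectants coexpressing the Gαq-coupled receptor and a calcium-sensitive aequorin photoprotein. Agonist challenge uses [Arg]-vasopressin at EC50 after a 10-minute compound exposure; IC50 values come from the luminescence signal.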

human V2 receptor = biological target: T2, human V2 receptor (Homo sapiens, UniProt P30518); assay: Cellular in vitro assay for determining vasopressin receptor activity, V2 receptor cell line (CHO, CRE-luciferase); format: cell-based; conditions: CHO cell line transfected with human V2 receptor; [Arg8]-vasopressin at EC50 concentration, 3 hours; read-out: IC50 hV2
T2 construct: expressed in transfected cells; host or cells: CHO K1 (ATCC) expressing firefly luciferase under a CRE-responsive promoter
T2 sequence (P30518 whole entry): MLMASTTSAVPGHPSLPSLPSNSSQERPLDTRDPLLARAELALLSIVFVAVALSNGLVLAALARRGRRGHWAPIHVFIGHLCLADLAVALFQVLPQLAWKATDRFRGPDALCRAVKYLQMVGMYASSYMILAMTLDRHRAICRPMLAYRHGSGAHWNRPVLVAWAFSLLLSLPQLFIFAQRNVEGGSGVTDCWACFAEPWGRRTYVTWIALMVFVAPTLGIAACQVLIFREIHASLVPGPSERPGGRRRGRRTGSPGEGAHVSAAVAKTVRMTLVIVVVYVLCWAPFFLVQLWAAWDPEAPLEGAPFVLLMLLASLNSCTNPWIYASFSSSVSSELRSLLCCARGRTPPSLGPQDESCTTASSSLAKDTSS

T1 sequence (P37288 whole entry): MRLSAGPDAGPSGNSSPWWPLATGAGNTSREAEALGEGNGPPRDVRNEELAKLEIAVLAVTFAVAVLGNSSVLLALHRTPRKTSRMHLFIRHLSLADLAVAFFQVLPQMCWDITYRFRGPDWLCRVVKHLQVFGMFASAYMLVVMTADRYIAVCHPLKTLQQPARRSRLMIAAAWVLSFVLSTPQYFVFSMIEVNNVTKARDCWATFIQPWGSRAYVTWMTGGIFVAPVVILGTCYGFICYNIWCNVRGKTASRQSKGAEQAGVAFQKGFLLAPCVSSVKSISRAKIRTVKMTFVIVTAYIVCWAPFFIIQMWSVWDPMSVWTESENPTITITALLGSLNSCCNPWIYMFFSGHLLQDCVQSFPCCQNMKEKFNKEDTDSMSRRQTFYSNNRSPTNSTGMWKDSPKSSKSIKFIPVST

Structure (SMILES)	IC50 (human V1a receptor)	ratio IC50 hV2/hV1a (human V1a receptor)	IC50 (human V2 receptor)
CC1(C(=O)Nc2ncccc2-n2cnc(Cn3nc(-c4ccc(Cl)cc4)n(C[C@H](O)C(F)(F)F)c3=O)n2)CC1 [Example 154]	6.75 nM	325.9	2200 nM
CC(C(=O)Nc1ncccc1-n1cnc(Cn2nc(-c3ccc(Cl)cc3)n(C[C@H](O)C(F)(F)F)c2=O)n1)n1cncn1 (stereo partly shown) [Example 155]	39 nM	50.0	1950 nM
O=C(Nc1ncccc1-n1cnc(Cn2nc(-c3ccc(Cl)cc3)n(C[C@H](O)C(F)(F)F)c2=O)n1)C1CCCCCC1 [Example 156]	66 nM	20.5	1350 nM
O=C(Nc1ncccc1-n1cnc(Cn2nc(-c3ccc(Cl)cc3)n(C[C@H](O)C(F)(F)F)c2=O)n1)c1ccncc1 [Example 157]	3.55 nM	859.2	3050 nM
CC(C)(C)CC(=O)Nc1ncccc1-n1cnc(Cn2nc(-c3ccc(Cl)cc3)n(C[C@H](O)C(F)(F)F)c2=O)n1 [Example 158]	10.6 nM	360.2	3800 nM
O=C(Nc1ncccc1-n1cnc(Cn2nc(-c3ccc(Cl)cc3)n(C[C@H](O)C(F)(F)F)c2=O)n1)C1CCCCC1 [Example 159]	52.5 nM	35.2	1850 nM
Cc1cc(C(=O)Nc2ncccc2-n2cnc(Cn3nc(-c4ccc(Cl)cc4)n(C[C@H](O)C(F)(F)F)c3=O)n2)no1 [Example 161]	26.5 nM	18.9	500 nM
Cc1cccc(C(=O)Nc2ncccc2-n2cnc(Cn3nc(-c4ccc(Cl)cc4)n(C[C@H](O)C(F)(F)F)c3=O)n2)c1 [Example 162]	300 nM	24.0	7200 nM
O=C(Nc1ncccc1-n1cnc(Cn2nc(-c3ccc(Cl)cc3)n(C[C@H](O)C(F)(F)F)c2=O)n1)c1ccno1 [Example 163]	28 nM	46.4	1300 nM
Cc1cn(CC(=O)Nc2ncccc2-n2cnc(Cn3nc(-c4ccc(Cl)cc4)n(C[C@H](O)C(F)(F)F)c3=O)n2)nn1 [Example 164]	660 nM	2.0	1300 nM
O=C(CC1CCCCO1)Nc1ncccc1-n1cnc(Cn2nc(-c3ccc(Cl)cc3)n(C[C@H](O)C(F)(F)F)c2=O)n1 (stereo partly shown) [Example 165]	66 nM	9.6	635 nM
O=C(Nc1ncccc1-n1cnc(Cn2nc(-c3ccc(Cl)cc3)n(C[C@H](O)C(F)(F)F)c2=O)n1)C1CCCCO1 (stereo partly shown) [Example 166]	39 nM	51.3	2000 nM
O=C(Nc1ncccc1-n1cnc(Cn2nc(-c3ccc(Cl)cc3)n(C[C@H](O)C(F)(F)F)c2=O)n1)OCC(F)(F)F [Example 167, 2,2,2-Trifluoroethyl {3-[3-({3-(4-chlorophenyl)-5-oxo-4-[(2S)-3,3,3-trifluoro-2-hydroxypropyl]-4,5-dihydro-1H-1,2,4-triazol-1-yl}methyl)-1H-1,2,4-triazol-1-yl]pyridin-2-yl}carbamate]	19.3 nM	64.7	1250 nM
O=C(NCC(F)(F)F)c1ccccc1-n1cnc(Cn2nc(-c3ccc(Cl)cc3)n(C[C@@H](O)C(F)(F)F)c2=O)n1 [Example 168, 2-[3-({3-(4-Chlorophenyl)-5-oxo-4-[(2R)-3,3,3-trifluoro-2-hydroxypropyl]-4,5-dihydro-1H-1,2,4-triazol-1-yl}methyl)-1H-1,2,4-triazol-1-yl]-N-(2,2,2-trifluoroethyl)benzamide]	28.5 nM	54.1	1540 nM
CNC(=O)c1ccccc1-n1cnc(Cn2nc(-c3ccc(Cl)cc3)n(C[C@H](O)C(F)(F)F)c2=O)n1 [Example 169, 2-[3-({3-(4-Chlorophenyl)-5-oxo-4-[(2S)-3,3,3-trifluoro-2-hydroxypropyl]-4,5-dihydro-1H-1,2,4-triazol-1-yl}methyl)-1H-1,2,4-triazol-1-yl]-N-methylbenzamide]	2.36 nM	118.5	280 nM
O=C1CN(C(=O)c2ccccc2-n2cnc(Cn3nc(-c4ccc(Cl)cc4)n(C[C@H](O)C(F)(F)F)c3=O)n2)CCN1 [Example 171, 4-{2-[3-({3-(4-Chlorophenyl)-5-oxo-4-[(2S)-3,3,3-trifluoro-2-hydroxypropyl]-4,5-dihydro-1H-1,2,4-triazol-1-yl}methyl)-1H-1,2,4-triazol-1-yl]benzoyl}piperazin-2-one]	139 nM	52.8	7350 nM
O=C(c1ccccc1-n1cnc(Cn2nc(-c3ccc(Cl)cc3)n(C[C@H](O)C(F)(F)F)c2=O)n1)N1CCOCC1 [Example 172, 5-(4-Chlorophenyl)-2-({1-[2-(morpholin-4-ylcarbonyl)phenyl]-1H-1,2,4-triazol-3-yl}methyl)-4-[(2S)-3,3,3-trifluoro-2-hydroxypropyl]-2,4-dihydro-3H-1,2,4-triazol-3-one]	3.25 nM		2120 nM
CC(C)(N)CNC(=O)c1ccccc1-n1cnc(Cn2nc(-c3ccc(Cl)cc3)n(C[C@H](O)C(F)(F)F)c2=O)n1 [Example 173, N-(2-Amino-2-methylpropyl)-2-[3-({3-(4-chlorophenyl)-5-oxo-4-[(2S)-3,3,3-trifluoro-2-hydroxypropyl]-4,5-dihydro-1H-1,2,4-triazol-1-yl}methyl)-1H-1,2,4-triazol-1-yl]benzamide]	4.28 nM	608.2	2610 nM
O=C(NCC(F)(F)F)c1ccccc1-n1cnc(Cn2nc(-c3ccc(Cl)cc3)n(C[C@H](O)C(F)(F)F)c2=O)n1 [Example 174, 2-[3-({3-(4-Chlorophenyl)-5-oxo-4-[(2S)-3,3,3-trifluoro-2-hydroxypropyl]-4,5-dihydro-1H-1,2,4-triazol-1-yl}methyl)-1H-1,2,4-triazol-1-yl]-N-(2,2,2-trifluoroethyl)benzamide]	5.01 nM	51.4	258 nM
O=C(c1ccccc1-n1cnc(Cn2nc(-c3ccc(Cl)cc3)n(C[C@H](O)C(F)(F)F)c2=O)n1)N1CCC(F)(F)CC1 [Example 175, 5-(4-Chlorophenyl)-2-[(1-{2-[(4,4-difluoropiperidin-1-yl)carbonyl]phenyl}-1H-1,2,4-triazol-3-yl)methyl]-4-[(2S)-3,3,3-trifluoro-2-hydroxypropyl]-2,4-dihydro-3H-1,2,4-triazol-3-one]	10.3 nM	150.7	1540 nM
O=C(NC1CS(=O)(=O)C1)c1ccccc1-n1cnc(Cn2nc(-c3ccc(Cl)cc3)n(C[C@H](O)C(F)(F)F)c2=O)n1 [Example 176, 2-[3-({3-(4-Chlorophenyl)-5-oxo-4-[(2S)-3,3,3-trifluoro-2-hydroxypropyl]-4,5-dihydro-1H-1,2,4-triazol-1-yl}methyl)-1H-1,2,4-triazol-1-yl]-N-(1,1-dioxidothietan-3-yl)benzamide]	15 nM	83.3	1250 nM
O=C(NCCN1CCCC1=O)c1ccccc1-n1cnc(Cn2nc(-c3ccc(Cl)cc3)n(C[C@H](O)C(F)(F)F)c2=O)n1 [Example 177, 2-[3-({3-(4-Chlorophenyl)-5-oxo-4-[(2S)-3,3,3-trifluoro-2-hydroxypropyl]-4,5-dihydro-1H-1,2,4-triazol-1-yl}methyl)-1H-1,2,4-triazol-1-yl]-N-[2-(2-oxopyrrolidin-1-yl)ethyl]benzamide]	9.9 nM	69.7	690 nM
O=C1CC[C@@H](CNC(=O)c2ccccc2-n2cnc(Cn3nc(-c4ccc(Cl)cc4)n(C[C@H](O)C(F)(F)F)c3=O)n2)N1 [Example 178, 2-[3-({3-(4-Chlorophenyl)-5-oxo-4-[(2S)-3,3,3-trifluoro-2-hydroxypropyl]-4,5-dihydro-1H-1,2,4-triazol-1-yl}methyl)-1H-1,2,4-triazol-1-yl]-N-{[(2S)-5-oxopyrrolidin-2-yl]methyl}benzamide]	18.5 nM	97.3	1800 nM
O=C1CC[C@H](CNC(=O)c2ccccc2-n2cnc(Cn3nc(-c4ccc(Cl)cc4)n(C[C@H](O)C(F)(F)F)c3=O)n2)N1 [Example 179, 2-[3-({3-(4-Chlorophenyl)-5-oxo-4-[(2S)-3,3,3-trifluoro-2-hydroxypropyl]-4,5-dihydro-1H-1,2,4-triazol-1-yl}methyl)-1H-1,2,4-triazol-1-yl]-N-{[(2R)-5-oxopyrrolidin-2-yl]methyl}benzamide]	6.1 nM	278.7	1700 nM
CC(=O)N[C@H]1CCN(C(=O)c2ccccc2-n2cnc(Cn3nc(-c4ccc(Cl)cc4)n(C[C@H](O)C(F)(F)F)c3=O)n2)C1 [Example 180, N-[(3S)-1-{2-[3-({3-(4-Chlorophenyl)-5-oxo-4-[(2S)-3,3,3-trifluoro-2-hydroxypropyl]-4,5-dihydro-1H-1,2,4-triazol-1-yl}methyl)-1H-1,2,4-triazol-1-yl]benzoyl}pyrrolidin-3-yl]acetamide]	68 nM	43.4	2950 nM
CC1(C)CN(C(=O)c2ccccc2-n2cnc(Cn3nc(-c4ccc(Cl)cc4)n(C[C@H](O)C(F)(F)F)c3=O)n2)CCN1 [Example 181, 5-(4-Chlorophenyl)-2-[(1-{2-[(3,3-dimethylpiperazin-1-yl)carbonyl]phenyl}-1H-1,2,4-triazol-3-yl)methyl]-4-[(2S)-3,3,3-trifluoro-2-hydroxypropyl]-2,4-dihydro-3H-1,2,4-triazol-3-one]	195 nM		18700 nM
